According to patent US9115086B2, “Therapeutic compositions and related methods of use” (AGIOS PHARMACEUTICALS, INC., priority 2009, dated 2015):

Molecular target: T1, PKM2 (Homo sapiens, UniProt P14618)
T1 construct: PKM2 stock enzyme solution was diluted in Reaction Buffer
Assay: PKM2 Assay (activation, LDH-coupled NADH absorbance at 340 nm)
Type: biochemical
Details: activation of PKM2
Description: • PKM2 stock enzyme solution was diluted in Reaction Buffer • 2 μL of compound was added into each well first, and then 180 μL of the Reaction Mix was added. • Reaction mixture with compound (without ADP) were incubated for 30 minutes at 4° C. • Plates were re-equilibrated to room temperature prior to adding 20 μL ADP to initiate the reaction. • Reaction progress was measured as changes in absorbance at 340 nm wavelength at room temperature (25° C.) Reaction Mix: PKM2 (50 ng/well), ADP (0.7 mM), PEP (0.15 mM), NADH (180 μM), LDH (2 units) in Reaction Buffer Reaction Buffer: 100 mM KCl, 50 mM Tris pH 7.5, 5 mM MgCl2, 1 mM DTT, 0.03% BSA.

T1 sequence (P14618 whole entry): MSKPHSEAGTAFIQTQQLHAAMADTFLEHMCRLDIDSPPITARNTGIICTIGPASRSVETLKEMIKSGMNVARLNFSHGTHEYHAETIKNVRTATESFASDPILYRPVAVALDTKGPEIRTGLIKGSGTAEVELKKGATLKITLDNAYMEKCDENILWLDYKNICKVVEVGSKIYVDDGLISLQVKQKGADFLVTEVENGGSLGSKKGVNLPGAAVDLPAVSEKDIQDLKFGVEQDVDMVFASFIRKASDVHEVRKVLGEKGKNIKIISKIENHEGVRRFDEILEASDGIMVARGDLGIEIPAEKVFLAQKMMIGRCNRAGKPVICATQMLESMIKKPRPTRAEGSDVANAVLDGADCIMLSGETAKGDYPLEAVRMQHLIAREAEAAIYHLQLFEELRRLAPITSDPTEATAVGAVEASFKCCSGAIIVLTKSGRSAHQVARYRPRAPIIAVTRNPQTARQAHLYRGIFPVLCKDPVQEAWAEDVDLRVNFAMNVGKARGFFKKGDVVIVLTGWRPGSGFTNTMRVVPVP

`O=C(COc1ccc(-n2cnnn2)cc1)N1CCN(S(=O)(=O)c2c(F)cccc2F)CC1` and `O=C(COc1ccc(-n2cnnn2)cc1)N1CCN(S(=O)(=O)c2ccc(F)cc2)CC1` cannot be ordered by EC50: less than 10 µM for the first, less than 10 µM for the second.

Compared with `O=C(COc1ccc(-n2cnnn2)cc1)N1CCN(S(=O)(=O)c2cccn2-c2ncc(C(F)(F)F)cc2Cl)CC1`, `O=C(COc1ccc(-n2cnnn2)cc1)N1CCN(S(=O)(=O)c2ccccc2)CC1` is lower in EC50: 10 to 100 µM for the first, less than 10 µM for the second.

`O=C(C1CCCCC1)N1CCN(S(=O)(=O)c2ccc3ccccc3c2)CC1` and `O=C(CC1CC1)N1CCN(S(=O)(=O)c2ccc3ccccc3c2)CC1` cannot be ordered by EC50: less than 10 µM for the first, less than 10 µM for the second.

`COC(=O)c1ccc(OCC(=O)N2CCN(S(=O)(=O)c3ccc4ccccc4c3)CC2)cc1` and `COc1ccc(OCC(=O)N2CCN(S(=O)(=O)c3ccc4ccccc4c3)CC2)cc1` cannot be ordered by EC50: less than 10 µM for the first, less than 10 µM for the second.

`O=C(COc1ccccc1)N1CCN(S(=O)(=O)c2ccc3ccccc3c2)CC1` and `O=C(COc1cccnc1)N1CCN(S(=O)(=O)c2ccc3ccccc3c2)CC1` cannot be ordered by EC50: less than 10 µM for the first, less than 10 µM for the second.

`O=C(Cc1ccc(C(F)(F)F)cc1)N1CCN(S(=O)(=O)c2cccc3ccccc23)CC1` and `O=C(Cc1ccc(C(F)(F)F)cc1)N1CCN(S(=O)(=O)c2ccc3ccccc3c2)CC1` cannot be ordered by EC50: less than 10 µM for the first, less than 10 µM for the second.

`O=C(CSc1ccc(F)cc1)N1CCN(S(=O)(=O)c2ccc3ccccc3c2)CC1` and `Cc1ccc(SCC(=O)N2CCN(S(=O)(=O)c3ccc4ccccc4c3)CC2)cc1` cannot be ordered by EC50: less than 10 µM for the first, less than 10 µM for the second.

`O=C(COc1ccc(-n2cnnn2)cc1)N1CCN(S(=O)(=O)c2cccc3ccccc23)CC1` and `O=C(COc1ccc(-n2cnnn2)cc1)N1CCN(S(=O)(=O)c2ccc3ccccc3c2)CC1` cannot be ordered by EC50: less than 10 µM for the first, less than 10 µM for the second.

`O=C(OCc1cccnc1)N1CCN(S(=O)(=O)c2ccc3ccccc3c2)CC1` and `O=C(OCc1ccccc1)N1CCN(S(=O)(=O)c2ccc3ccccc3c2)CC1` cannot be ordered by EC50: less than 10 µM for the first, less than 10 µM for the second.

`O=C(CCc1ccccc1)N1CCN(S(=O)(=O)c2ccc3ccccc3c2)CC1` and `O=C(COCc1ccccc1)N1CCN(S(=O)(=O)c2ccc3ccccc3c2)CC1` cannot be ordered by EC50: less than 10 µM for the first, less than 10 µM for the second.

`O=C(COc1ccccc1)N1CCN(S(=O)(=O)c2cccc3cccnc23)CC1` and `O=C(COc1ccccc1)N1CCN(S(=O)(=O)c2cccc3ccccc23)CC1` cannot be ordered by EC50: less than 10 µM for the first, less than 10 µM for the second.

`O=C(OCc1ccccc1)N1CCN(S(=O)(=O)c2ccccc2)CC1` and `O=C(COc1ccccc1)N1CCN(S(=O)(=O)c2ccccc2)CC1` cannot be ordered by EC50: less than 10 µM for the first, less than 10 µM for the second.

`O=C(CNc1ccccc1)N1CCN(S(=O)(=O)c2ccc3ccccc3c2)CC1` and `Cc1ccc(OCC(=O)N2CCN(S(=O)(=O)c3ccc4ccccc4c3)CC2)cc1` cannot be ordered by EC50: less than 10 µM for the first, less than 10 µM for the second.

First: O=C(Cc1ccc(C(F)(F)F)cc1)N1CCN(S(=O)(=O)c2cc(Cl)cc(Cl)c2)CC1
Second: O=C(Cc1ccc(C(F)(F)F)cc1)N1CCN(S(=O)(=O)c2cc(C(F)(F)F)cc(C(F)(F)F)c2)CC1
The EC50 of the first is lower: 10 to 100 µM for the first, greater than 100 µM for the second.

`O=C(CCc1ccc(C(F)(F)F)cc1)N1CCN(S(=O)(=O)c2ccc3ccccc3c2)CC1` and `O=C(C1CC1c1ccc(C(F)(F)F)cc1)N1CCN(S(=O)(=O)c2ccc3ccccc3c2)CC1` (stereo not drawn) cannot be ordered by EC50: less than 10 µM for the first, less than 10 µM for the second.

`O=C(C1CC1c1ccc(C(F)(F)F)cc1)N1CCN(S(=O)(=O)c2cc(C3CC3)cc(C(F)(F)F)c2)CC1` (stereo not drawn) and `O=C(C1CC1c1ccc(C(F)(F)F)cc1)N1CCN(S(=O)(=O)c2ccc3c(c2)OCCO3)CC1` (stereo not drawn) cannot be ordered by EC50: less than 10 µM for the first, less than 10 µM for the second.

`CC(C)(C)OCC(=O)N1CCN(S(=O)(=O)c2ccc3sc(=O)sc3c2)CC1` and `CN1C(=O)C(=O)c2cc(S(=O)(=O)N3CCN(C(=O)COc4ccccc4)CC3)ccc21` fall in the same range of EC50: 10 to 100 µM for the first, 10 to 100 µM for the second.

First: O=C(COc1ccc(C(F)(F)F)cc1)N1CCN(S(=O)(=O)c2ccc3c(c2)OCCO3)CC1
Second: CN1C(=O)COc2ccc(S(=O)(=O)N3CCN(C(=O)COc4ccccc4)CC3)cc21
The EC50 of the first is higher: greater than 100 µM for the first, 10 to 100 µM for the second.

`COc1ccc(Cl)cc1S(=O)(=O)N1CCN(C(=O)COc2ccc(-n3cnnn3)cc2)CC1` and `O=C(COc1ccc(-n2cnnn2)cc1)N1CCN(S(=O)(=O)c2cccc3cccnc23)CC1` fall in the same range of EC50: 10 to 100 µM for the first, 10 to 100 µM for the second.

`O=C(C1CCCCC1)N1CCN(S(=O)(=O)c2cccc(C(F)(F)F)c2)CC1` and `O=C(COc1ccccc1)N1CCN(S(=O)(=O)c2ccc(F)cc2)CC1` cannot be ordered by EC50: less than 10 µM for the first, less than 10 µM for the second.

`O=C(CSc1ccc(Cl)cc1Cl)N1CCN(S(=O)(=O)c2ccc3ccccc3c2)CC1` and `Cc1cc(C)cc(OCC(=O)N2CCN(S(=O)(=O)c3ccc4ccccc4c3)CC2)c1` cannot be ordered by EC50: less than 10 µM for the first, less than 10 µM for the second.
